According to paper PMC5431190, “Investigation of cationicity and structure of pseudin-2 analogues for enhanced bacterial selectivity and anti-inflammatory activity” (Scientific Reports, 2017):
≈ marks a conversion by molar mass, not a printed value. Like-named read-outs stand apart in the source and are kept apart here. Residues, ends and D or L forms follow the SMILES beside them.

Experiments:
[1] = tested on: S. aureus 3108(R) (MRSA 3108); assay type: cell-based, Staphylococcus aureus; settings: multidrug-resistant strain; 1% peptone media, 16 h at 37 °C
[2] = tested on: Acinetobacter baumannii CCARM 12036 (MDRAB 12036); assay type: cell-based; settings: multidrug-resistant strain; 1% peptone media, 16 h at 37 °C
Source text: (§1) Four Gram-negative bacteria species (Escherichia coli KCTC 1682, Acinetobacter baumannii KCTC 2508, Pseudomonas aeruginosa KCTC 1637 and Salmonella typhimurium KCTC 1926) and three Gram-positive bacteria species (Staphylococcus aureus KCTC 1621, Bacillus subtilis KCTC 3028 and Staphylococcus epidermidis KCTC 1917) were procured from the Korean Collection for Type Cultures (KCTC). Multi-drug-resistant Gram-negative bacteria (Salmonella typhimurium CCARM 8003 and 8007, Escherichia coli CCARM 1229 and 1238, Pseudomonas aeruginosa CCARM 2002 and 2095 and Acinetobacter baumannii CCARM 12035 and 12036) were obtained from the Culture Collection of Antibiotic-Resistant Microbes (CCARM). To determine MICs, bacteria were cultured in Luria-Bertani (LB) medium for overnight at 37 °C. An aliquot of the culture was incubated in 1% peptone media at 37 °C until mid-log phase. 100 μl of serial 2-fold diluted peptides were treated in 96 well plates and added to 100 μl of 2 × 10^6 CFU/ml bacterial suspensions in 1% peptone media for 16 h at 37 °C.

[3] = tested on: Pseudomonas aeruginosa KCTC 1637; assay type: cell-based
Source text: as §1

[4] = tested on: Staphylococcus epidermidis KCTC 1917; assay type: cell-based
Source text: as §1

[5] = tested on: Gram-negative bacteria (E. coli, A. baumannii, P. aeruginosa, S. typhimurium); assay type: cell-based
Source text: as §1

[6] = tested on: Pseudomonas aeruginosa CCARM 2095 (MDRPA 2095); assay type: cell-based; settings: multidrug-resistant strain; 1% peptone media, 16 h at 37 °C
Source text: as §1

[7] = tested on: Salmonella typhimurium CCARM 8003 (MDRST 8003); assay type: cell-based; settings: multidrug-resistant strain; 1% peptone media, 16 h at 37 °C
Source text: as §1

[8] = tested on: Pseudomonas aeruginosa CCARM 2002 (MDRPA 2002); assay type: cell-based; settings: multidrug-resistant strain; 1% peptone media, 16 h at 37 °C
Source text: as §1

[9] = tested on: Escherichia coli CCARM 1229 (MDREC 1229); assay type: cell-based; settings: multidrug-resistant strain; 1% peptone media, 16 h at 37 °C
Source text: as §1

[10] = tested on: Salmonella typhimurium KCTC 1926; assay type: cell-based
Source text: as §1

[11] = tested on: Staphylococcus aureus KCTC 1621; assay type: cell-based
Source text: as §1

[12] = tested on: Acinetobacter baumannii CCARM 12035 (MDRAB 12035); assay type: cell-based; settings: multidrug-resistant strain; 1% peptone media, 16 h at 37 °C
Source text: as §1

[13] = tested on: Gram-positive bacteria (S. aureus, B. subtilis, S. epidermidis); assay type: cell-based
Source text: as §1

[14] = tested on: Bacillus subtilis KCTC 3028; assay type: cell-based
Source text: as §1

[15] = tested on: Salmonella typhimurium CCARM 8007 (MDRST 8007); assay type: cell-based; settings: multidrug-resistant strain; 1% peptone media, 16 h at 37 °C
Source text: as §1

[16] = tested on: Escherichia coli KCTC 1682; assay type: cell-based
Source text: as §1

[17] = tested on: Escherichia coli CCARM 1238 (MDREC 1238); assay type: cell-based; settings: multidrug-resistant strain; 1% peptone media, 16 h at 37 °C
Source text: as §1

[18] = tested on: Acinetobacter baumannii KCTC 2508; assay type: cell-based
Source text: as §1

[19] = tested on: S. aureus 3089(R) (MRSA 3089); assay type: cell-based, Staphylococcus aureus; settings: multidrug-resistant strain; 1% peptone media, 16 h at 37 °C
[20] = tested on: human red blood cells (hRBCs); assay: Haemolytic activity; assay type: cell-based; settings: red cells of human, 1 h
Method: Peptide-induced lysis of human red blood cells (hRBCs) was determined as follows. Fresh hRBCs were washed 2–3 times with phosphate-buffered saline (PBS) by centrifugation for 5 min at 2500 rpm at 4 °C. Peptides in PBS were incubated with 4% (v/v) hRBCs for 1 h at 37 °C. Samples were then centrifuged for 5 min at 1000 × g. The absorbance of the supernatant at 405 nm was used as a measure of haemolysis. As a positive control, 100% haemolysis was obtained by treating hRBCs with 0.1% Triton X-100.

[21] = tested on: S. aureus 3126(R) (MRSA 3126); assay type: cell-based, Staphylococcus aureus; settings: multidrug-resistant strain; 1% peptone media, 16 h at 37 °C

Structure (SMILES) | MIC, MRSA 3108 [1] | MIC, MDRAB 12036 [2] | MIC, MDRPA 2095 [6] | MIC, MDRST 8003 [7] | MIC, MDRPA 2002 [8] | MIC, MDREC 1229 [9] | MIC, MDRAB 12035 [12] | MIC, MDRST 8007 [15] | MIC, MDREC 1238 [17] | MIC, MRSA 3089 [19] | MIC, MRSA 3126 [21] | also measured
CC[C@H](C)[C@H](NC(=O)[C@H](C)NC(=O)[C@H](CCC(=O)O)NC(=O)[C@H](Cc1c[nH]cn1)NC(=O)[C@@H](NC(=O)[C@@H]1CCCN1C(=O)[C@H](CCC(N)=O)NC(=O)[C@H](Cc1ccccc1)NC(=O)[C@@H](NC(=O)[C@H](CCCCN)NC(=O)[C@H](CCCCN)NC(=O)[C@H](CC(C)C)NC(=O)[C@H](C)NC(=O)[C@H](CC(N)=O)NC(=O)[C@H](CC(C)C)NC(=O)CN)C(C)C)[C@@H](C)CC)C(=O)N[C@@H](CCCCN)C(=O)N[C@@H](CC(C)C)C(=O)N[C@H](C(=O)N[C@@H](CC(N)=O)C(=O)N[C@@H](CC(N)=O)C(=O)N[C@@H](Cc1c[nH]cn1)C(=O)N[C@H](C(=O)N[C@@H](CCC(N)=O)C(=O)O)C(C)C)[C@@H](C)CC [Ps-P] (H-GLNALKKVFQPIHEAIKLINNHVQ-OH) | 32 µM (≈ 87.2 µg/mL) | 8 µM (≈ 21.8 µg/mL) | 16 µM (≈ 43.6 µg/mL) | 16 µM (≈ 43.6 µg/mL) | 16 µM (≈ 43.6 µg/mL) | 8 µM (≈ 21.8 µg/mL) | 8 µM (≈ 21.8 µg/mL) | 8 µM (≈ 21.8 µg/mL) | 8 µM (≈ 21.8 µg/mL) | 32 µM (≈ 87.2 µg/mL) | 32 µM (≈ 87.2 µg/mL) | MIC, P. aeruginosa ([3]; KCTC 1637, 16 h): 16 µM (≈ 43.6 µg/mL); MIC, S. epidermidis ([4]; KCTC 1917, 16 h): 32 µM (≈ 87.2 µg/mL); Average MIC, Gram-negative ([5]; 16 h): 10 µM; MIC, S. typhimurium ([10]; KCTC 1926, 16 h): 8 µM (≈ 21.8 µg/mL); MIC, S. aureus ([11]; KCTC 1621, 16 h): 32 µM (≈ 87.2 µg/mL); Average MIC, Gram-positive ([13]; 16 h): 32 µM; MIC, B. subtilis ([14]; KCTC 3028, 16 h): 32 µM (≈ 87.2 µg/mL); MIC, E. coli ([16]; KCTC 1682, 16 h): 8 µM (≈ 21.8 µg/mL); MIC, A. baumannii ([18]; KCTC 2508, 16 h): 8 µM (≈ 21.8 µg/mL); MHC (minimal peptide concentration that produces haemolysis) [20]: 400 µM; haemolysis at 400 μM [20]; 400: 0.5%
CC[C@H](C)[C@H](NC(=O)CN)C(=O)NCC(=O)N[C@@H](C)C(=O)N[C@H](C(=O)N[C@@H](CC(C)C)C(=O)N[C@@H](CCCCN)C(=O)N[C@H](C(=O)N[C@@H](CC(C)C)C(=O)N[C@H](C(=O)N[C@H](C(=O)NCC(=O)N[C@@H](CC(C)C)C(=O)N1CCC[C@H]1C(=O)N[C@@H](C)C(=O)N[C@@H](CC(C)C)C(=O)N[C@H](C(=O)N[C@@H](CO)C(=O)N[C@@H](Cc1c[nH]c2ccccc12)C(=O)N[C@H](C(=O)N[C@@H](CCCCN)C(=O)N[C@@H](CCCNC(=N)N)C(=O)N[C@@H](CCCCN)C(=O)N[C@@H](CCCNC(=N)N)C(=O)N[C@@H](CCC(N)=O)C(=O)N[C@@H](CCC(N)=O)C(N)=O)[C@@H](C)CC)[C@@H](C)CC)[C@@H](C)O)[C@@H](C)O)C(C)C)C(C)C [Melittin, reference compound] | 2 µM (≈ 5.69 µg/mL) | 4 µM (≈ 11.4 µg/mL) | 2 µM (≈ 5.69 µg/mL) | 8 µM (≈ 22.8 µg/mL) | 2 µM (≈ 5.69 µg/mL) | 4 µM (≈ 11.4 µg/mL) | 4 µM (≈ 11.4 µg/mL) | 8 µM (≈ 22.8 µg/mL) | 4 µM (≈ 11.4 µg/mL) | 2 µM (≈ 5.69 µg/mL) | 2 µM (≈ 5.69 µg/mL) | MIC, P. aeruginosa ([3]; standard strain KCTC 1637, 1% peptone media, 16 h at 37 °C, three independent experiments in triplicate, SD 14.0%): 4 µM (≈ 11.4 µg/mL); MIC, S. epidermidis ([4]; standard strain KCTC 1917, 1% peptone media, 16 h at 37 °C, three independent experiments in triplicate, SD 14.0%): 2 µM (≈ 5.69 µg/mL); Average MIC, Gram-negative ([5]; average over the four Gram-negative standard strains): 5 µM; MIC, S. typhimurium ([10]; standard strain KCTC 1926, 1% peptone media, 16 h at 37 °C, three independent experiments in triplicate, SD 14.0%): 8 µM (≈ 22.8 µg/mL); MIC, S. aureus ([11]; standard strain KCTC 1621, 1% peptone media, 16 h at 37 °C, three independent experiments in triplicate, SD 14.0%): 4 µM (≈ 11.4 µg/mL); Average MIC, Gram-positive ([13]; average over the three Gram-positive standard strains): 3.33 µM; MIC, B. subtilis ([14]; standard strain KCTC 3028, 1% peptone media, 16 h at 37 °C, three independent experiments in triplicate, SD 14.0%): 4 µM (≈ 11.4 µg/mL); MIC, E. coli ([16]; standard strain KCTC 1682, 2-fold dilutions, 1% peptone media, 2 × 10^6 CFU/ml suspension, 16 h at 37 °C, three independent experiments in triplicate, SD 14.0%): 4 µM (≈ 11.4 µg/mL); MIC, A. baumannii ([18]; standard strain KCTC 2508, 1% peptone media, 16 h at 37 °C, three independent experiments in triplicate, SD 14.0%): 4 µM (≈ 11.4 µg/mL)
